Measurements from US8822692B2, “Diterpenoid derivatives endowed of biological properties” (SIGMA-TAU Industrie Farmaceutiche Riunite S.p.A., priority 2010, dated 2014).
Marks after values point to notes of the source that are not given here.

How the values were obtained:
Format in all cases: in vivo, rat
[1] = system: rats bearing an α-adducin mutation (NA strain); experiment: Anti-hypertensive effect in mutant α-adducin congenic rats (NA), six week oral treatment; conditions: six weeks; for SBP: vehicle 164.4; for HR: vehicle 412
Protocol: Anti-hypertensive property of various derivatives were looked at in vivo in three animal models of hypertension (i.e., mutant α-adducin congenic rats, ouabain-hypertensive rats and Milan hypertensive rats). The compound of example 4 was administered by oral gavage at various doses for six weeks to rats bearing an α-adducin mutation (NA strain). Such mutation leading to hypertension and organ complication (Bianchi G., et al., Proc. Natl. Acad. Sci., 1994, 91, 3999) was obtained by introgressing a segment of chromosome 14 containing the locus of α-adducin from Milan Hypertensive rats (MHS), having the mutant variant, into Milan Normotensive rats (MNS), carrying the wild type α-adducin variant (Tripodi G., et al., Biochem. Biophys. Res. Commun., 2004, 324, 562).

[2] = system: Ouabain-Hypertensive Rats (OHR); experiment: Anti-hypertensive effect in ouabain-hypertensive rats (OHR), six week oral treatment; conditions: six weeks
Protocol: (§1) Anti-hypertensive property of various derivatives were looked at in vivo in three animal models of hypertension (i.e., mutant α-adducin congenic rats, ouabain-hypertensive rats and Milan hypertensive rats).
Hypertension was provoked by subcutaneous ouabain infusion (15 μg/kg/day) in normotensive rats as already described (Ferrari P., et al., J. Pharmacol. Exp. Ther., 1998, 285, 83).

[3] = system: Milan Hypertensive Rats (MHS); experiment: Anti-hypertensive effect in Milan hypertensive rats (MHS), six week oral treatment; conditions: for effect on SBP in MHS rats (in words): at the dose tested; for SBP / HR: oral gavage 10 μg/kg/day, six weeks; for SBP: vehicle 169 (experiment A), 164 (experiment B); for HR: vehicle 348 (experiment A), 363 (experiment B)
Text: as §1
Milan hypertensive rats is a rat model of genetic hypertension sustained by α-adducin mutation and increased circulating levels of endogenous ouabain (Ferrari P., et al., Hypertension: Pathophysiology, Diagnosis and Management, (Volume 1). Laragh J H and Brenner B M (Eds.), Raven Press Publishers, New York, USA, 1261-1279, (1995).
The compounds were administered by oral gavage (10 μg/kg/day) for six weeks.

OHR rats = experiment: Urinary protein excretion and renal function in OHR rats
Protocol: The effect of the compound of example 4 on urinary protein excretion was investigated. Increased levels of circulating endogenous ouabain not only associate with hypertension but also may affect renal function and increase the risk of renal failure and proteinuria (Stella P., et al., J. Int. Med., 2008, 263, 274) which represent major organ complications associated to hypertension.
OHR rats were orally treated with the compound of example 4 at 0.1 μg/kg/day for 6 weeks. At the end of the treatment, rats were allocated in single metabolic cages for 24 h urine collection.
Proteinuria and urinary creatinine were measured by commercial kits (Sentinel). Rats were sacrificed and blood was collected for plasma creatinine measurement.

[4] = oral gavage 0.1 μg/kg/day once a day, experiment A, vehicle 173
[5] = oral gavage 0.1 μg/kg/day once a day, experiment A, vehicle 387
[6] = oral gavage 1 μg/kg/day once a day, experiment A, vehicle 173
[7] = oral gavage 1 μg/kg/day once a day, experiment A, vehicle 387

| SMILES | SBP [2, 4] | HR [2, 5] | SBP [2, 6] | HR [2, 7] | effect on SBP in MHS rats (in words) [3] | SBP [3] | HR [3] | other results |
| --- | --- | --- | --- | --- | --- | --- | --- | --- |
| CC(C)c1ccc2c(c1)CCC1C(C)(/C=N/O[C@@H]3CCNC3)CCCC21C.O=C(O)/C=C/C(=O)O (stereo partly drawn) [Example 4, (E)-15-((R)-3-Pyrrolidinyloxyimino)-13-isopropylpodocarpa-8,11,13-triene fumarate] | 157** mmHg | 382 beats/min | 153** mmHg | 380 beats/min | not effective on SBP | – | – | SBP ([1]; oral gavage 1 μg/kg/day): 150.6* mmHg; HR ([1]; oral gavage 1 μg/kg/day): 415 beats/min; SBP ([1]; oral gavage 10 μg/kg/day): 150.6* mmHg; HR ([1]; oral gavage 10 μg/kg/day): 425 beats/min; SBP ([1]; oral gavage 100 μg/kg/day): 147.5** mmHg; HR ([1]; oral gavage 100 μg/kg/day): 421 beats/min; urinary protein excretion in OHR rats (in words) (OHR rats; 0.1 μg/kg/day): significantly reduced the urinary protein excretion; Urinary creatinine (OHR rats; oral 0.1 μg/kg/day, 6 weeks, 24 h urine, OHR vehicle 33.7, saline controls 36.1): 35.6 mg/24 h; Proteinuria (OHR rats; oral 0.1 μg/kg/day, 6 weeks, 24 h urine, OHR vehicle 51.6 ± 5, saline controls 35.6): 42** mg/24 hr; Plasma creatinine (OHR rats; oral 0.1 μg/kg/day, 6 weeks, OHR vehicle 3.51, saline controls 3.1): 3.59 mg/dL |
| CC(C)c1ccc2c(c1)CCC1C(C)(/C=N/O[C@H]3CCNC3)CCCC21C.O=C(O)/C=C/C(=O)O (stereo partly drawn) [Example 5, (E)-15-((S)-3-Pyrrolidinyloxyimino)-13-isopropylpodocarpa-8,11,13-triene fumarate] | 154** mmHg | 390 beats/min | – | – | – | 155* mmHg | 367 beats/min | – |
| CC(C)c1ccc2c(c1)CCC1C(C)(C=NOC3CCNCC3)CCCC21C.O=C(O)C=CC(=O)O (stereo not shown) [Example 6, (E)-15-(4-Piperidinyloxyimino)-13-isopropylpodocarpa-8,11,13-triene fumarate] | – | – | 166 mmHg | 392 beats/min | – | – | – | – |
| CC(C)c1ccc2c(c1)C(=O)C[C@H]1[C@](C)(/C=N/OCCN)CCC[C@]21C.O=C(O)/C=C/C(=O)O [Example 12, (E)-15-(2-Aminoethoxyimino)-13-isopropylpodocarpa-8,11,13-triene-7-one fumarate] | – | – | – | – | significantly reduced SBP | 161* mmHg | 347 beats/min | SBP ([2]; oral gavage 10 μg/kg/day once a day, experiment B, vehicle 171): 156** mmHg; HR ([2]; oral gavage 10 μg/kg/day once a day, experiment B, vehicle 377): 380 beats/min |
| CC(C)c1ccc2c(c1)CCC1C(C)(/C=C\CCCN)CCCC21C.O=C(O)/C=C/C(=O)O (stereo not shown) [Example 23, (Z)-15-(4-Aminobutyliden)-13-isopropylpodocarpa-8,11,13-triene fumarate] | – | – | 159** mmHg | 370 beats/min | – | – | – | – |
| CC(C)c1ccc2c(c1)CCC1C(C)(CCCCCN)CCCC21C.O=C(O)/C=C/C(=O)O (stereo not shown) [Example 25, 15-(4-Aminobutyl)-13-isopropylpodocarpa-8,11,13-triene fumarate] | 164 mmHg | 395 beats/min | – | – | – | – | – | – |
| CC(N)CCCCC1(C)CCCC2(C)c3ccc(C(C)C)cc3CCC12.O=C(O)/C=C/C(=O)O (stereo not shown) [Example 26, 15-(4-Aminopentyl)-13-isopropylpodocarpa-8,11,13-triene fumarate] | – | – | 164 mmHg | 374 beats/min | – | – | – | – |
| CC(C)c1ccc2c(c1)CCC1C(C)(COCCCN)CCCC21C.O=C(O)/C=C/C(=O)O (stereo not shown) [Example 27, 15-(3-Aminopropoxy)-13-isopropylpodocarpa-8,11,13-triene fumarate] | – | – | 156** mmHg | 390 beats/min | significantly reduced SBP | 156* mmHg | 367 beats/min | – |
